In data set [1] the test system is patients with glaucoma or ocular hypertension. The data set can be described thus: Clinical study: intraocular pressure (IOP) lowering, multicenter double-masked randomized parallel-group. Format: in vivo. Conditions: range over week 2, week 6 and month 3 (hours 0, 2, 7, 9).
Experimental: IOP (hours 0, 2, 7, and 9), patient satisfaction questionnaire, patient comfort of study medication questionnaire, pharmacoeconomic evaluation by investigator
All data were summarized with descriptive statistics, frequency tables, and/or data listings. Safety analyses included all patients who received at least 1 dose of study medication. Analyses were performed for the primary efficacy variable IOP using the intent-to-treat (ITT) population with last observation carried forward (LOCF), and the per protocol population with observed cases.
Continuous variables (eg, IOP) were analyzed using analysis of variance (ANOVA). Within-group changes from baseline for continuous variables were analyzed using paired t-tests.
A 2-way ANOVA model with factors for treatment and investigator was used for the analysis of IOP. Comparisons were made between the Combination and each of the 2 monotherapies in a pairwise fashion using contrasts from the ANOVA model, with the same error term. A separate ANOVA model was employed at each hour/visit measurement of IOP. […] Point estimates of the mean treatment differences, as well as 2-sided 95% confidence intervals (CI) of the difference, were provided at each timepoint.
Data set [2] shares this test system. The data set can be described thus: Clinical study: safety (adverse events, heart rate, blood pressure, visual acuity). It counts as in vivo.
Data set [3] in a line: Clinical study: quantitation of plasma brimonidine and timolol concentrations. Format: in vivo, patients. Conditions: for concentration at 1 h: human, plasma, other: ophthalmic solution, 1 hour postdose, read-out: mean±SD plasma timolol concentration.

Like-named read-outs stand apart in the source and are kept apart here.

For the compound `Brc1c(N=C2NCCN2)ccc2nccnc12.O=C(O)C(O)C(O)C(=O)O` [Brimonidine, 5-Bromo-6-(2-imidazolidinylideneamino)quinoxaline L-tartrate], in data set [1], the “Mean changes from baseline diurnal IOP” value is recorded as −3.5 to −5.7 mm Hg and the “Mean values of diurnal IOP” value lay in the range of 17.4 to 21.5 mm Hg.
Consider `CC(C)(C)NC[C@H](O)COc1nsnc1N1CCOCC1.O=C(O)/C=C\C(=O)O` [Timolol], for which, in data set [1], the “Mean changes from baseline diurnal IOP” value was −4.5 to −6.4 mm Hg and the “Mean values of diurnal IOP” value is 17.5 to 18.9 mm Hg. In data set [2] (% of patients), the “Serious adverse events reported” value worked out at 2.0% and the “discontinuation of patients due to adverse events” value is listed as 3.0%. Moreover, in data set [2] (adverse event through month 3), the “allergic conjunctivitis, % of patients” value was “(0.0%)”; the “allergic conjunctivitis, number of patients” value worked out at 0; the “asthenia, % of patients” value was “(0.5%)”; the “asthenia, number of patients” value is on record as 1. In data set [2] (adverse event through month 3), the “burning sensation in eye, % of patients” value is recorded as “(12.7%)”; the “burning sensation in eye, number of patients” value is on record as 25; the “conjunctival folliculosis, % of patients” value is on record as “(0.5%)”; the “conjunctival folliculosis, number of patients” value is 1. Moreover, in data set [2] (adverse event through month 3), the “conjunctival hyperemia, % of patients” value is “(5.6%)”; the “conjunctival hyperemia, number of patients” value is on record as 11; the “epiphora, % of patients” value is on record as “(1.5%)”; the “epiphora, number of patients” value is recorded as 3. Further, in data set [2] (adverse event through month 3), the “eye pruritus, % of patients” value was “(1.5%)”; the “eye pruritus, number of patients” value amounted to 3; the “foreign body sensation, % of patients” value was “(2.5%)”; the “foreign body sensation, number of patients” value worked out at 5. In data set [2] (adverse event through month 3), the “infection (body as a whole), % of patients” value was “(4.1%)”; the “infection (body as a whole), number of patients” value is reported as 8; the “oral dryness, % of patients” value is “(0.5%)”; the “oral dryness, number of patients” value is 1. Besides, in data set [2] (adverse event through month 3), the “somnolence, % of patients” value is reported as “(0.0%)”; the “somnolence, number of patients” value worked out at 0; the “stinging sensation eye, % of patients” value was “(5.6%)”; the “stinging sensation eye, number of patients” value stood at 11. In data set [2] (adverse event through month 3), the “visual disturbance, % of patients” value is given as “(1.5%)” and the “visual disturbance, number of patients” value was determined as 3. Further, in data set [2] (through month 3), the “incidence of eye discharge” value worked out at 0% and the “patients who experienced one or more adverse events, regardless of causality” value is given as 50.8%. Besides, in data set [3] (month 3), the concentration at 1 h came to 0.873 ± 0.516 ng/mL and the “plasma timolol concentration in males lower than in females” value was determined as 39%. Besides, in data set [3] (week 2), the concentration at 1 h amounted to 0.95 ± 0.709 ng/mL and the “plasma timolol concentration in males lower than in females” value worked out at 45%.

The values are drawn from US7642258B2 (Allergan, Inc., priority 2002, dated 2010).
